The assay deals with T1, porcine pancreatic lipase (Sus scrofa, UniProt P00591).
T1 construct: purchased Sigma
T1 sequence (P00591 1-450): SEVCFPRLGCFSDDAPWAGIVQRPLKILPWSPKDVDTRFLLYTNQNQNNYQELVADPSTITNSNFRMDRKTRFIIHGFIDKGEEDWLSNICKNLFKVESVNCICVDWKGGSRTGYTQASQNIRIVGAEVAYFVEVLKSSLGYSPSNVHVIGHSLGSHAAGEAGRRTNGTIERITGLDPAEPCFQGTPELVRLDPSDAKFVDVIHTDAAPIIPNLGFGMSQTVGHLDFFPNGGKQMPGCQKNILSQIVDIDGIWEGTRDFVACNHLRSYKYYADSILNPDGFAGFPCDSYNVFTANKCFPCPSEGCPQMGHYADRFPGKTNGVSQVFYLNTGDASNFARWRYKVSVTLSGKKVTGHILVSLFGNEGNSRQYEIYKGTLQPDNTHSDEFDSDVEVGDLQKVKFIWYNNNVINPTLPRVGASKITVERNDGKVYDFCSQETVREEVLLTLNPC
The assay can be described thus: Lipase inhibitory activity measurement (4-UMO fluorescence substrate). Format: biochemical. The following applies: for IC50: 4-UMO substrate, pH 8.0, 25 degrees, 30 minutes of reaction; for lipase inhibitory activity (in words): summary of Table 1. How it is done: Lipase activity measurement was carried out by using oleic acid ester of fluorescence 4-methylumbelliferone (4-UMO) as a substrate, and measuring the fluorescence of 4-methylumbelliferone produced by reaction.
Substrate 4-UMO (Sigma) is prepared as 0.1 M solution in DMSO and diluted 1000 times with the buffer mentioned above. Similarly, lipase (porcine pancreatic lipase (Sigma)) is prepared as 400 U/ml solution in the buffer mentioned above and used in enzymatic measurement.
50 μl of 4-UMO buffer solution and 25 μl of distilled water (or sample solution) are placed in 96 well microplate and mixed at 25 degrees, followed by adding 25 μl of lipase buffer solution to start enzyme reaction. After 30 minutes of reaction, 100 μl of 0.1 M citric acid buffer (pH 4.2) was added to terminate the reaction, and fluorescence of 4-methylumbelliferone (excitation wavelength: 355 nm, fluorescence wavelength: 460 nm) produced by the reaction was measured with a fluorescence plate reader (Labsystems, Fluoroskan Asent CF).

Broadly, the IC50 is the point on the concentration scale where inhibition reaches its midpoint. Read a low IC50 as higher potency. For `O=C(OC[C@H]1OC(OC(=O)c2cc(O)c(O)c(O)c2)[C@H](OC(=O)c2cc(O)c(O)c(O)c2)[C@@H](O)[C@@H]1OC(=O)c1cc(O)c(O)c(O)c1)c1cc(O)c(O)c(O)c1` (some centres unmarked) [1,2,4,6-tetra-GA-Glc (6), 1,2,4,6-tetragalloylglucose], it took 203 nM to reach half-maximal inhibition (IC50) and the “lipase inhibitory activity (in words)” value was “showed lipase inhibitory activity”.
For `O=C(OCC1OC(OC(=O)c2cc(O)c(O)c(O)c2)C(O)C(O)C1OC(=O)c1cc(O)c(O)c(O)c1)c1cc(O)c(O)c(O)c1` [1,4,6-tri-O-galloyl-D-glucose (4), 1,4,6-tri-O-galloyl-D-glucose] the same measures were 1230 nM and “showed lipase inhibitory activity”.
For `O=C(O)c1cc(O)c(O)c(O)c1` [Galli acid (1), Gallic acid, reference compound] the same measures were above 50000 nM and “showed no activity”.
`O=C(O[C@H]1[C@@H]2OC(=O)c3cc(O)c(O)c(O)c3-c3c(cc(O)c(O)c3O)C(=O)OC[C@H]2OC(O)[C@@H]1OC(=O)c1cc(O)c(O)c(O)c1)c1cc(O)c(O)c(O)c1` (some centres unmarked) [Tellimagrandin1 (7), Tellimagrandin 1]: 127 nM corresponded to half-maximal inhibition (IC50) and the “lipase inhibitory activity (in words)” value is reported as “showed lipase inhibitory activity”.
For `O=C(O[C@@H]1O[C@@H]2COC(=O)c3cc(O)c(O)c(O)c3-c3c(cc(O)c(O)c3O)C(=O)O[C@H]2[C@H](OC(=O)c2cc(O)c(O)c(O)c2)[C@H]1OC(=O)c1cc(O)c(O)c(O)c1)c1cc(O)c(O)c(O)c1` [Tellimagrandin2 (8), Tellimagrandin 2] the same measures were 74 nM and “showed lipase inhibitory activity”.
For `O=C(O[C@@H]1O[C@@H]2COC(=O)c3cc(O)c(O)c(O)c3-c3c(cc(O)c(O)c3O)C(=O)O[C@H]2[C@H](O)[C@H]1O)c1cc(O)c(O)c(O)c1` [strictinin (5), strictinin] the same measures were 472 nM and “showed lipase inhibitory activity”.
Consider `O=C(O[C@@H]1C[C@](O)(C(=O)O)C[C@@H](O)[C@H]1O)c1cc(O)c(O)c(O)c1` [theogallin (3), theogallin], for which the IC50 was above 50000 nM.
`O=C(O[C@@H]1O[C@H](CO)[C@@H](O)[C@H](O)[C@H]1O)c1cc(O)c(O)c(O)c1` [β-glucogallin (2), β-glucogallin] had a half-maximal inhibitory concentration (IC50) above 50000 nM.

These data come from US7754695B2, “Lipase inhibitors” (Suntory Holdings Limited, priority 2004, dated 2010).
